The text below walks through data of PMC7228089, “Odiparcil, a potential glycosaminoglycans clearance therapy in mucopolysaccharidosis VI—Evidence from in vitro and in vivo models” (PLoS ONE, 2020).

A short description of data set [1]: Odiparcil tissue exposure after repeated oral dosing (LC-MS/MS). The note with it: rat. Format: in vivo, Sprague Dawley rats. As for the experimental part: Sprague Dawley rats were orally administered with odiparcil for 5-days, three times a day (t.i.d) with a 25 mg/kg/dose as a suspension in Methylcellulose 400 cps 1% / Poloxamer 188 0.1% / Water. On day 5, only one dose was administered and tissues–bone from head of femurs and cartilage also from head of femurs, cornea and heart–were collected at 30 min post-dosing, 3 animals per sample. Tissues were snap-frozen immediately after collection and stored at -20°C until odiparcil quantification by LC-MS/MS. Non compartmental method was applied with Phoenix WinNonLin® to estimate the Cmax and AUC parameters. Tissue partition coefficient (Kp) was calculated on AUC values (AUC tissue / AUC plasma). Moreover, Kp for the heart was corrected for the significant blood content (26%) while it was not corrected for bone, cartilage and cornea.

Data set [2] has as its system MPS VI patient fibroblasts GM00538. Nature of the data set: Number of cultured cells (viability) during odiparcil treatment. Format: cell-based, human. The note with it: different odiparcil concentrations, growing and confluent conditions. As for the experimental part:
Primary skin fibroblasts from MPS VI patients GM00538 and GM02572 were obtained from the NIGMS Human Genetic Cell Repository at the Coriell Institute for Medical Research. Cell culturing was done according to the conditions provided by the Coriell Institute. For evaluation of the effect of odiparcil, cells were seeded in 96 well imaging plates (Falcon Cat N 353219) and two types of treatment were evaluated: i) prophylactic conditions—cells were treated with odiparcil before reaching confluence, 24 hours after plating; and ii) curative conditions—cells were treated with odiparcil after reaching confluence (10 days culturing). Cells were treated by odiparcil added to the culture media. This was done by replacing the initial culture media by media containing 0.1% DMSO with or without odiparcil (at 0.01, 0.03, 0.1, 0.3, 1, 3 and 10 μM). For treatment, the cells were incubated for 72 hours at 37°C, 5% CO2. All experimental conditions were performed in triplicate, i.e., 3 wells/test condition.
After odiparcil treatment as described above, culture media were removed to be used for dimethylmethylene blue (DMMB) assay and the cells were fixed in PFA 4%. Immunofluorescent staining was done following standard protocol comprising permeabilization with 0.1% Triton X 100, blocking with 2% NGS, staining with primary antibody and staining with secondary antibody and Hoechst (for nuclei visualization). […]

“And” between values parts separate entries of the source, which are not always exact repeats. Identical values can stand only once. Like-named read-outs stand apart in the source and are kept apart here.

As for `Cc1cc(=O)oc2cc(O[C@@H]3SC[C@@H](O)[C@H](O)[C@H]3O)ccc12` [Odiparcil, 4-methyl-7-(5-thio-β-D-xylopyranosyloxy)-2 H-chromen-2-one], the Cmax in data set [1] (Sprague-Dawley, bone (head of femurs), po, 25 mg/kg, bone (head of femurs), oral 25 mg/kg/dose t.i.d. 5 days, read-out: Cmax (converted)) is 1310 ng/g; in data set [1] (Sprague-Dawley, bone (head of femurs), po, 25 mg/kg, bone, oral 25 mg/kg/dose t.i.d. 5 days, read-out: Cmax (converted)) it was 4 µM; in data set [1] (Sprague-Dawley, bone, cartilage, cornea, po, 25 mg/kg/dose, span over bone, cartilage and cornea, repeated oral dosing, read-out: Cmax (converted)), 500 ng/g to 1300 ng/g and 1.7 µM to 4 µM; in data set [1] (Sprague-Dawley, cartilage (head of femurs), po, 25 mg/kg, cartilage (head of femurs), oral 25 mg/kg/dose t.i.d. 5 days, read-out: Cmax (converted)), 1100 ng/g; in data set [1] (Sprague-Dawley, cartilage (head of femurs), po, 25 mg/kg, cartilage, oral 25 mg/kg/dose t.i.d. 5 days, read-out: Cmax (converted)), 3.4 µM; in data set [1] (Sprague-Dawley, cornea, po, 25 mg/kg, cornea, oral 25 mg/kg/dose t.i.d. 5 days, read-out: Cmax (converted)), 535 ng/g and 1.7 µM. Also, the Cmax in data set [1] (Sprague-Dawley, heart, po, 25 mg/kg, heart, oral 25 mg/kg/dose t.i.d. 5 days, read-out: Cmax (converted)) was ~4600 ng/g and ~14.3 µM; in data set [1] (Sprague-Dawley, plasma, po, 25 mg/kg, plasma, oral 25 mg/kg/dose t.i.d. 5 days, 30 min after last administration, read-out: Cmax (converted)), approximately 7300 ng/mL; in data set [1] (Sprague-Dawley, plasma, po, 25 mg/kg, plasma, oral 25 mg/kg/dose t.i.d. 5 days, read-out: Cmax (converted)), approximately 22.5 µM; in data set [1] (plasma, oral 25 mg/kg/dose t.i.d. 5 days, 30 min after last administration, 25 mg/kg), 7 297 ng/mL. For the same molecule, the Kp at 120 h was 0.18 in data set [1] (Sprague-Dawley, bone (head of femurs), po, 25 mg/kg, bone, oral 25 mg/kg/dose t.i.d. 5 days, read-out: Kp AUC (AUC tissue / AUC plasma)); 0.12 in data set [1] (Sprague-Dawley, cartilage (head of femurs), po, 25 mg/kg, cartilage, oral 25 mg/kg/dose t.i.d. 5 days, read-out: Kp AUC (AUC tissue / AUC plasma)); 0.12 in data set [1] (Sprague-Dawley, cornea, po, 25 mg/kg, cornea, oral 25 mg/kg/dose t.i.d. 5 days, read-out: Kp AUC (AUC tissue / AUC plasma)); approximately 0.44 in data set [1] (Sprague-Dawley, heart, po, 25 mg/kg, heart, corrected for blood content (26%), oral 25 mg/kg/dose t.i.d. 5 days, read-out: blood corrected Kp AUC); 0.69 in data set [1] (Sprague-Dawley, heart, po, 25 mg/kg, heart, not blood corrected, oral 25 mg/kg/dose t.i.d. 5 days, read-out: Kp AUC (AUC tissue / AUC plasma)). Besides, the Kp in data set [1] (Sprague-Dawley, bone, cartilage, cornea, po, 25 mg/kg/dose, bone, cartilage and cornea together, repeated oral dosing, read-out: AUC Kp) was approximately 0.15. For the same molecule, the AUC was 14800 ng·h/mL in data set [1] (Sprague-Dawley, plasma, oral 25 mg/kg/dose t.i.d. 5 days, read-out: AUC (converted)); 2 646 ng.h/g in data set [1] (bone, oral 25 mg/kg/dose t.i.d. 5 days); 1 805 ng.h/g in data set [1] (cartilage, oral 25 mg/kg/dose t.i.d. 5 days); 1 737 ng.h/g in data set [1] (cornea, oral 25 mg/kg/dose t.i.d. 5 days); 10 203 ng.h/g in data set [1] (heart, oral 25 mg/kg/dose t.i.d. 5 days). Besides, the “Effect on viability of the cells (number of cells)” value in data set [2] is given as “no effect on viability of the cells”.

By Cmax is commonly meant the maximum level reached in the sampled fluid or tissue. One may read the AUC as the area under the concentration-time curve, a measure of exposure.
